Assays:
tubulin [1] = assay: Microtubule polymerization-depolymerization measurements (turbidity at 340 nm); format: biochemical; details: for suppression of calcium chloride promoted depolymerization: 10^-6 M drug, 1.0 mg/mL tubulin, 0.25 mM CaCl2, 37° C.
Description: Tubulin polymerization-depolymerization measurements are illustrate in FIG. 3. Negative controls are shown with triangles; positive taxol controls are shown with diamonds; and taxol-2'-MPT, i.e., compound 2 is shown with dots.
More particularly, measurement were performed in 96 well plates at 37° C. following the protocol of R. Merlock and W. Wrasidlo (Analytical Biochemistry 1993, in press). Calcium chloride addition is indicated by the arrow. In each case, 1.0 mM GTP was used to promote the initial polymerization of tubulin. Negative control employed tubulin (1.0 mg/mL) alone, CaCl2 (0,25 mM) added after 20 minutes. Positive taxol control employed tubulin (1.0 mg/mL) with taxol (10^-6 M) and CaCl2 (0.25 mM) added after 20 minutes. The experimental taxol-2'-MPTemployed tubulin (1.0 mg/mL) with taxol-2'-MPT (10^-6) and CaCl2 (0.25 mM) added after 20 minutes. Turbidity was measured as optical density at 340 nm using a microplate reader (Molecular Devices Thermomax).

metastatic melanoma = assay: Cytotoxicity (XTT, 72 hours), metastatic melanoma
Description: (§6) More particularly, cells were plated on 96 well plates with the following controls: no cells and toxic control (1×10^-3 M SDS). The drug was added to the first set of wells and diluted via standard dilution method from the stock. Plates were incubated at 37° C., 5% CO2 in sterile air in an humidified incubator for 72 hours. An aliquot of 50 L of a solution of 2,3-bis(methoxy-4-nitro-5-sulfophenyl)-5-[(phenylamino)carbonyl]-1H-tetrazolium hydroxide (XTT), 1 mg mL^-1, in phosphate buffered saline (PBS, 100 mM) was added to the wells. In the presence of viable cells, this colorless clear media is enzymatically altered to give a pink coloration. […] Percentage cytotoxicity was calculated using the formula: %C=1--(OD toxin)(OD growth control)^-1 (100).

human leukemia = assay: Cytotoxicity (XTT, 72 hours), human leukemia
[2] = Octanol/water partition coefficient by HPLC
Description: (§1) The solubility and partition coefficient data for 2 and taxol were determined using an HPLC method.
(§2) Solubility was found by forming a solution in water with the aid of sonication for five minutes, centrifugation of the samples, and injection of the supernatant. The values reported were normalized using calibration curves constructed for both compounds by preparing known concentrations in the range 1×10^-6 to 1×10^-3 M in methylene chloride and subjecting to HPLC analysis under the same conditions. […] Partition coefficients were determined by dissolving the compound in the organic phase, shaking the resulting solution with water for ten minutes, and analyzing each phase by HPLC as above.

albumin = details: sera; cited from earlier work
[3] = background statement; cited from earlier work
cervical carcinoma = assay: Cytotoxicity (XTT, 72 hours), cervical carcinoma
Description: as §6

tubulin [4] = details: background; cited from earlier work
[5] = Self-assembly: optical clarity, OD at 340 nm, TEM; format: physicochemical; details: for morphology of self-assembled structures in buffered solutions: 1 mM in 100 mM PBS
From the text: Transmission electron microscopy (TEM) confirmed the presence of supramolecular structures in these solutions. […] It is likely that the long term stability of these solutions is due, at least in part, to stabilization provided by this structured environment.

serum albumen = assay: Displacement of MPT group by serum albumin
From the text: (§3) However, the release of taxol from taxol-2'-MPT can also be catalyzed by serum protein and by proteins having nucleophilic groups. […] Dialysis of the protein:taxol intermediate indicates a dissociation period of hours or days. Displacement of the MPT group by serum proteins seems to be specific for such serum proteins. […] The precise nature of the bonding between the protein and taxol has not been characterized. Scheme 2 illustrates alternative pathways for MPT release.

[6] = Stability/kinetics of taxol release from taxol-2'-MPT in plasma; format: in vitro ADME, human
Description: (§4) Due to a difference in retention time using our standard HPLC conditions (see FIG. 1) and differing ultraviolet absorption maxima (1280 /1254 =1.6 for 2 and 0.3 for 1), the stability of 2 was easily assayed by HPLC (FIG. 1). […] In phosphate buffered saline (PBS) or ammonium acetate--phosphate buffer systems of pH 6.0 to 7.3, 2 is stable at 25° C. for over 21 days. Taxol-2'-MPT (2) is, however, unstable in 5% HCl (pH 1.1) and brine.
(§5) Under these conditions 20% of total is recovered. More particularly, Taxol-2'-MPT (2) was dissolved in the aqueous system with the aid of sonication for five minutes. Aliquots were then removed at the times shown and partitioned into methylene chloride to quench the reaction. Samples were then analyzed using a Waters Maxima HPLC instrument equipped with an autoinjector (3.9×300 mm C18 column equipped with a precolumn. The flow rate was 1.5 mL/minute. The eluent gradient A-B extended over 30 minutes. "A" was 80% 80 mM ammonium acetate, pH 6.0. "B" was 100% methanol. An ultraviolet diode array detector was employed. The ratio of compound 2 (Rf 16.2 min.) to taxol (compound 1, Rf 16.8 min.) remaining was determined from the relative areas of the peaks after normalization with previously determined calibration curves.

non-serum proteins = assay: Displacement of MPT group by non-serum proteins
From the text: as §3

[7] = Solubility in water by HPLC (sonication, centrifugation, injection of supernatant); format: physicochemical
Description: as §1, §2

[8] = Stability of taxol-2'-MPT by HPLC (solid state, aqueous media); format: physicochemical
Description: as §4

[9] = test system: A549 non-small cell lung adenocarcinoma; assay: Efficacy in lung tumor xenograft nude mouse model
Description: The tumor model was generated from an ATCC A549 non-small cell lung adenocarcinoma cell line that was maintained under the standard cell proliferation conditions (37° C., 5% carbon dioxide in sterile air). Hemocytometer counted cells suspended in Hanks medium (Gibco, Grand Island N.Y.) were implanted S.C.

serum protein = assay: Displacement of MPT group by serum protein
From the text: as §3

immunoglobulins = assay: Displacement of MPT group by immunoglobulins
From the text: as §3

[10] = Kinetics of taxol release from taxol-2'-MPT in aqueous solutions at 25° C.; format: physicochemical; details: sterile water, pH 6.2 PBS or 5% dextrose, over 11 minutes
Description: as §5

[11] = water, 5% dextrose, 1.5% saline

CC(=O)O[C@H]1C(=O)[C@@]2(C)[C@H]([C@H](OC(=O)c3ccccc3)[C@]3(O)C[C@H](OC(=O)[C@H](O)[C@@H](NC(=O)c4ccccc4)c4ccccc4)C(C)=C1C3(C)C)[C@]1(OC(C)=O)CO[C@@H]1C[C@@H]2O [taxol, reference compound]
suppression of calcium chloride promoted depolymerization (tubulin [1]): suppressed by taxol | microtubule stabilization by taxol recovered from human plasma treated with 2 (tubulin [1]; taxol recovered from plasma): exhibited the expected microtubule stabilization | cytotoxicity level, metastatic melanoma (metastatic melanoma): Extremely high | cytotoxicity level, human leukemia (human leukemia): Extremely high | Partition Coefficient [octanol]/[water] [2]: > 10000 | taxol binding to albumin (albumin): ca. 85% | water solubility [3]: less than 1.5×10^-6 molar | cytotoxicity level, cervical carcinoma (cervical carcinoma): Extremely high | effect of taxol binding on tubulin (tubulin [4]): prevents its polymerization and the formation of microtubules

CC(=O)O[C@H]1C(=O)[C@@]2(C)[C@H]([C@H](OC(=O)c3ccccc3)[C@]3(O)C[C@H](OC(=O)[C@H](Oc4cccc[n+]4C)[C@@H](NC(=O)c4ccccc4)c4ccccc4)C(C)=C1C3(C)C)[C@]1(OC(C)=O)CO[C@@H]1C[C@@H]2O [taxol-2'-MPT]
suppression of calcium chloride promoted depolymerization (tubulin [1]): not by taxol-2'-MPT | microtubule polymerization-depolymerization (tubulin [1]; GTP-saline controls and taxol as comparators): very similar to GTP-saline controls and drastically different from taxol | effect on tubulin-microtubule equilibria (tubulin [1]; buffered aqueous assay): does not affect the tubulin-microtubule equilibria | binding to tubulin (tubulin [1]; inferred from the polymerization assay): does not appear to bind to tubulin in the manner of taxol | morphology of self-assembled structures in buffered solutions ([5]; TEM): self-assembled helical fibrous nanostructures | morphology of self-assembled structures in buffered solutions ([5]; TEM, listed as 2): Uniform aggregates of fibrillar structure | morphology of self-assembled structures in unbuffered solutions ([5]; 1 mM in H2O, TEM): self-assembled spherical nanostructures | diameter of fibrillar aggregates ([5]; TEM): ca. 80 Å | helical twist of aggregates ([5]; TEM): about 7 | length of fibrillar aggregates ([5]; TEM): up to 800 Å | concentration above which haze is exhibited ([5]; buffered solutions): greater than 1×10^-3 M | critical concentration (exponential increase in OD at 340 nm) ([5]; buffered solutions, 340 nm): 400 µM | diameter of spherical structures ([5]; freshly sonicated solutions, TEM): about 50 Å | optical appearance of water solutions ([5]; water, all concentrations examined): optically clear | effectiveness in displacing MPT group, serum albumin (serum albumen): particularly effective | degradation in human plasma ([6]; human plasma, 37° C.): breaks down rapidly | recovery ([6]; human, plasma, methylene chloride extraction, read-out: total recovered from plasma): 20% | total recovered from plasma ([6]; plasma, methylene chloride extraction): 20% | time to complete conversion of 2 into taxol in plasma ([6]; plasma, methylene chloride extraction, 25° C. per FIG. 1): ≤ 10 min | discharge of taxol in sera ([6]; sera): rapidly discharges taxol in sera | cytotoxicity level, metastatic melanoma (metastatic melanoma): Extremely high | cytotoxicity level, human leukemia (human leukemia): Extremely high | MPT-displacing activity of non-serum proteins (non-serum proteins): seemed to lack this activity | degradation during solubility and partition studies [7]: No degradation | solubility compared with clinically relevant dosages (3 to 30 mM) ([7]; range of aqueous systems): higher than the clinically relevant dosages | water solubility compared with parent taxol ([7]; relative to taxol): significantly more soluble in water than the parent taxol | solubility ([7]; water, HPLC, table value): 1700 µM | logP [2]: 1.7 | stability in 5% HCl and brine ([8]; 5% HCl (pH 1.1) and brine): unstable | degradation products detected ([8]; HPLC): taxol and the pyridinone that results from hydrolysis of pyridinium salts | stability period in buffer ([8]; PBS or ammonium acetate-phosphate buffer, pH 6.0 to 7.3, 25° C.): over 21 days | stability in aqueous media (discussion) ([8]; aqueous media, physiological pH and ion strength): essentially completely stable | stability in most aqueous media (discussion) ([8]; most aqueous media): remarkably stable | onset of slow degradation [8, 11]: > 4 days | stability in water, 5% dextrose, and 1.5% saline [8, 11]: stable for several days | control of tumor growth ([9]; I.P. day 1, 3, 7, taxol 18.0 mg/kg, taxol-2'-MPT 23.9 mg/kg, preliminary data): at least comparable to that of taxol | conversion to taxol in vivo ([9]; inferred from the xenograft results): converted rapidly to taxol in vivo | cytotoxicity level, cervical carcinoma (cervical carcinoma): Extremely high | displacement of MPT group on contact with serum protein (serum protein): observed to displace its MPT group and form a protein:taxol intermediate | effectiveness in displacing MPT group, immunoglobulins (immunoglobulins): particularly effective | taxol release in aqueous media [10]: no taxol release is observed
